According to US10175228B2, “Method of using transmembrane channel-like protein 6 (TMC6) protein to identify substances affecting salty taste” (priority 2016, dated 2019):
Where a name gives a salt, the structure may show the parent alone.

Molecular target: T1, mouse TMC6 protein (Mus musculus, UniProt Q7TN60, A788T)
T1 construct: expressed in transfected cells; host or cells: CHO-K1
T1 sequence (Q7TN60 1-810 A788T): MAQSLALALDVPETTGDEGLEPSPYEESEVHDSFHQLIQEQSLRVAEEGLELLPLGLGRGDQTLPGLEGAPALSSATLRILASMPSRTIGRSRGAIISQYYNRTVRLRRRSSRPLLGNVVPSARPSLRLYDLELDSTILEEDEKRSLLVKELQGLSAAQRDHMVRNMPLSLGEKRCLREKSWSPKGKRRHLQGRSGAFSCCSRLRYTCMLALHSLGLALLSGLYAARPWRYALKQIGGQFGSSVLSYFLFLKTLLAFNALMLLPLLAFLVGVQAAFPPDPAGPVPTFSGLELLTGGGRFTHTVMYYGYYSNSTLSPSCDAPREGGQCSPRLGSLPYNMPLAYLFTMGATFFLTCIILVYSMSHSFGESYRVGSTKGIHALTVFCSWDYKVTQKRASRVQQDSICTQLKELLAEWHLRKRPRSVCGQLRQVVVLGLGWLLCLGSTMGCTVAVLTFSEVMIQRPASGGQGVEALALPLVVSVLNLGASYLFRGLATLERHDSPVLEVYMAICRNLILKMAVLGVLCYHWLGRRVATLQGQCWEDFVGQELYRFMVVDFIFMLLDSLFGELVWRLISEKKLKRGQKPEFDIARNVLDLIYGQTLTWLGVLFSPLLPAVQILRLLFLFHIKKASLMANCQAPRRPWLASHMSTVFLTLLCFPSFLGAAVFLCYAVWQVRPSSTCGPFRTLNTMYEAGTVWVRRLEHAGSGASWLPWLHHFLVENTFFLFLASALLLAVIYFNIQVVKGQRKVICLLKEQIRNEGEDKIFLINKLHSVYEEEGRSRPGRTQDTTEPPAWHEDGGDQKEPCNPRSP
Assay: Calcium imaging (YC2.60 FRET) of CHO-K1 cells expressing the mouse TMC6 gene
Type: cell-based
Settings: one typical TMC6-expressing cell, stimulation with ATP stimulation solution (50 μM ATP), FIG. 13C
Procedure: CHO-K1 cells were transfected with TMC6-pcDNA3.1 or pcDNA3.1 in combination with YC2.60-pcDNA, to prepare TMC6-expressing cells (cells expressing the mouse TMC6 gene and the YC2.60 gene) and control cells (cells expressing the YC2.60 gene). The prepared cells were stimulated, and activation of the cells was measured. The procedure was as follows.
That is, first, CHO-K1 cells (ATCC) were inoculated into a culture dish having a diameter of 60 mm while adjusting the number of the cells to obtain 60% confluence, and cultured for 8 hr. As the medium, 5 mL of Ham's F-12K (Kaighn's) (Life Technologies) containing 10% fetal bovine serum (Life Technologies) was used. A 15 μL aliquot of FuGENE 6 (Promega) was added to 235 μL of Opti-MEM (Thermo Fisher Scientific), and incubated for 5 min at a room temperature. Then, 0.625 μg of TMC6-pcDNA3.1 and 2.5 μg of YC2.60-pcDNA were further added thereto, and incubated for 15 min at a room temperature. Then, the whole of the resultant mixture was dropped into the culture broth of the CHO-K1 cells, and the culture broth was mildly stirred. Then, the cells were further cultured for 18 hr under a condition of 5% CO2 at 37° C., to obtain the TMC6-expressing cells. Similarly, the control cells were obtained through transfection using pcDNA3.1 instead of TMC6-pcDNA3.1.
After the cultivation, the culture broth was removed. A low-concentration NaCl solution (27 mM NaCl, 1 mM KCl, 0.4 mM CaCl2, 0.2 mM MgCl2, 2 mM Hepes (pH7.3), 1 mM NaHCO3, 2 mM glucose, 2 mM sodium pyruvate, and 112 mM NMDG-Cl) was added to the culture dish, incubation was carried out statically for 5 min, and then, stimulation and observation of cells were started. First, the low-concentration NaCl solution was perfused for approximately 80 sec, to provide a ground state. Then, a high-concentration NaCl solution (135 mM NaCl, 1 mM KCl, 0.4 mM CaCl2, 0.2 mM MgCl2, 2 mM Hepes (pH7.3), 1 mM NaHCO3, 2 mM glucose, and 2 mM sodium pyruvate) was perfused instead of the low-concentration NaCl solution for approximately 60 sec, to stimulate the cells. […]

Row | SMILES | relative FRET value (YFP/CFP) of the ROI-1 cell
1 | Nc1ncnc2c1ncn2[C@@H]1O[C@H](COP(=O)(O)OP(=O)(O)OP(=O)(O)O)[C@@H](O)[C@H]1O [ATP] | ≥ 1.3

Tested on: wild-type C57BL/6J mouse and homo knockout mouse of the TMC6 gene
Assay: Palatability tests for taste substances other than NaCl, two-bottle method
Type: in vivo
Settings: 48 hr, taste substance aqueous solution versus control aqueous solution
Procedure: <Taste Substance Aqueous Solutions>
MSG: 100 mM monosodium glutamate
MSG+IMP: 100 mM monosodium glutamate+1 mM inosinic acid
Citric Acid: 10 mM citric acid
Quinine HCl: 0.3 mM quinine hydrochloride
Fructose: 300 mM fructose

Row | SMILES | difference in palatability or repellency between Tmc6 −/− mouse and wild-type mouse
2 | O=C(CO)[C@@H](O)[C@H](O)[C@H](O)CO [Fructose, fructose] | No difference
3 | OC[C@H]1O[C@@](CO)(O[C@H]2O[C@H](CO)[C@@H](O)[C@H](O)[C@H]2O)[C@@H](O)[C@@H]1O [Sucrose, sucrose] | No difference
4 | O=C(O)CC(O)(CC(=O)O)C(=O)O [Citric acid, citric acid] | No difference
5 | N[C@@H](CCC(=O)O)C(=O)[O-].[Na+] [MSG, monosodium glutamate] | No difference
6 | C=C[C@H]1C[N@@]2CC[C@H]1C[C@H]2[C@H](O)c1ccnc2ccc(OC)cc12 [Quinine HCl, quinine hydrochloride] | No difference
